Source: patent US10479780B2, “Aminopyrazole derivatives” (Chugai Seiyaku Kabushiki Kaisha, priority 2015, dated 2019)
Like-named read-outs stand apart in the source and are kept apart here.

Tests used:
Assay type in all cases: biochemical
human Src enzyme = target: T1, human Src enzyme (Homo sapiens, UniProt P12931); experiment: Src enzyme inhibitory activity (time-resolved fluorometry, biotinylated peptide phosphorylation); conditions: read-out: SRC_IC50
T1 construct: purchased Carna Biosciences, Inc. 08-173
T1 sequence (P12931 whole entry): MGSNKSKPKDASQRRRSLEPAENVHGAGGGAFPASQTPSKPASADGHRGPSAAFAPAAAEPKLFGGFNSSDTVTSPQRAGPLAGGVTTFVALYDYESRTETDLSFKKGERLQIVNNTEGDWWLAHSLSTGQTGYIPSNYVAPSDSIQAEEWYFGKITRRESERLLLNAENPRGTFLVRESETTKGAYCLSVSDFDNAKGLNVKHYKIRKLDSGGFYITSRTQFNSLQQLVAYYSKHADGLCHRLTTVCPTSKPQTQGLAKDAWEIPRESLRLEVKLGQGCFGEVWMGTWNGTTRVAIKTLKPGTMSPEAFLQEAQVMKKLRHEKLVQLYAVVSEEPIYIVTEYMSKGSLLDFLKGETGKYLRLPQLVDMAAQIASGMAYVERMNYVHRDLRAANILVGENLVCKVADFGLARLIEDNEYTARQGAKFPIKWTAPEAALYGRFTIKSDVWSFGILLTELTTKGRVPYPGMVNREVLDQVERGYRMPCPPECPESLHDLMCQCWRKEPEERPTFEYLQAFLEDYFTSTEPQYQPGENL
Description: 2. Src Enzyme Inhibitory Activity Src inhibitory activity was determined based on activity of inhibiting phosphorylation reaction of a biotinylated peptide (EGPWLEEEEEAYGWMDF) using a human Src enzyme (manufactured by Carna Biosciences, Inc., cat 08-173). The phosphorylated biotinylated peptide was detected by time-resolved fluorometry using an anti-phosphorylated tyrosine antibody conjugated to europium cryptate, and streptavidin conjugated to XL665, an allophycocyanin derivative. The 50% inhibitory concentration (IC50) was calculated from the inhibition rate relative to the control group without containing the test substance.

human Lck enzyme = target: T2, human Lck enzyme (Homo sapiens, UniProt P06239); experiment: Lck enzyme inhibitory activity (time-resolved fluorometry, biotinylated peptide phosphorylation); conditions: read-out: LCK_IC50
T2 construct: purchased Carna Biosciences, Inc. 08-170
T2 sequence (P06239 whole entry): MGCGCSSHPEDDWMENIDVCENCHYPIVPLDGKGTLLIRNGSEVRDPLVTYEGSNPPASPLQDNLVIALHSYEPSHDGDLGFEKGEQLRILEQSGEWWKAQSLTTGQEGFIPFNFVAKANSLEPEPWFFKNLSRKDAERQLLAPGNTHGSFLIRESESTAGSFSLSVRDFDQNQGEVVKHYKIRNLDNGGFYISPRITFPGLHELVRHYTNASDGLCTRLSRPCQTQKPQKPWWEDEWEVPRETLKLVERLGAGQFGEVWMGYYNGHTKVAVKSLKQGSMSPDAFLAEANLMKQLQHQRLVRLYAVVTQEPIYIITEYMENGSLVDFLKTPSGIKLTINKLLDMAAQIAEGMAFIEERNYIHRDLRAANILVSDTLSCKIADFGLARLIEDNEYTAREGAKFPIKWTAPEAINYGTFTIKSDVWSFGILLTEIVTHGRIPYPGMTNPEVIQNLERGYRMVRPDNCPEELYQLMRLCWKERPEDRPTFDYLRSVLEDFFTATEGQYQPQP
How it was run: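 Readout pairs a europium cryptate-labelled anti-phosphotyrosine antibody with XL665-streptavidin, measured by time-resolved fluorescence. IC50 derived from percent inhibition against untreated controls.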

human Yes1 enzyme = target: T3, human Yes1 enzyme (Homo sapiens, UniProt P07947); experiment: Yes1 enzyme inhibitory activity (time-resolved fluorometry, biotinylated peptide phosphorylation); conditions: read-out: YES_IC50
T3 construct: made in house
T3 sequence (P07947 whole entry): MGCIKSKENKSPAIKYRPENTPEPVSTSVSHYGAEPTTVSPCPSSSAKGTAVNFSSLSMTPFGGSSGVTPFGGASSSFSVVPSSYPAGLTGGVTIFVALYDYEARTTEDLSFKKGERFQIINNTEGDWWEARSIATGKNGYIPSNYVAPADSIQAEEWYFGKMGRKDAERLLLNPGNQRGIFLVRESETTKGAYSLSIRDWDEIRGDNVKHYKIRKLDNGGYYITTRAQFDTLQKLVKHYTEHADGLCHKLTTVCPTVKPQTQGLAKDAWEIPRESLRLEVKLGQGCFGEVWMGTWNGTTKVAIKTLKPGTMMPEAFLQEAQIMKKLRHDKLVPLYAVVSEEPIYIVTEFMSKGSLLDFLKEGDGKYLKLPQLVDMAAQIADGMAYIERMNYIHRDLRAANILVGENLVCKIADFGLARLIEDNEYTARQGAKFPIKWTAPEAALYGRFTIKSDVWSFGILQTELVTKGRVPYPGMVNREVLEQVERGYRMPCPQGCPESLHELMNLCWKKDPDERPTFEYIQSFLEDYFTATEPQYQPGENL
How it was run: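 Inhibition was expressed against a compound-free control to give IC50, using TR-FRET read-out (Eu-cryptate anti-pTyr antibody, streptavidin-XL665).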

[1] = biotinylated peptide phosphorylation

| Structure (SMILES) | IC50 (human Src enzyme; [1]) [nM] | IC50 (human Lck enzyme; [1]) [nM] | IC50 (human Yes1 enzyme; [1]) [nM] | IC50 (human Src enzyme) [nM] | IC50 (human Lck enzyme) [nM] | IC50 (human Yes1 enzyme) [nM] |
| --- | --- | --- | --- | --- | --- | --- |
| COc1ccccc1-c1cc2[nH]c(C(=O)c3cnn(-c4cnc(Oc5c(F)cccc5F)cc4C)c3N)cc2cc1OC1CCN(C2CCCC2)CC1 [Example 5-1-503, [5-amino-1-[6-(2,6-difluorophenoxy)-4-methylpyridin-3-yl]pyrazol-4-yl]-[5-(1-cyclopentylpiperidin-4-yl)oxy-6-(2-methoxyphenyl)-1H-indol-2-yl]methanone] | 87 | 15 | 1.9 |  |  |  |
| Nc1c(C(=O)c2cc3cc(F)c(NS(=O)(=O)CCCF)cc3[nH]2)cnn1-c1c(Cl)cc(Oc2ccccc2F)cc1Cl [Example 5-1-033, N-[2-[5-amino-1-[2,6-dichloro-4-(2-fluorophenoxy)phenyl]pyrazole-4-carbonyl]-5-fluoro-1H-indol-6-yl]-3-fluoropropane-1-sulfonamide] |  |  |  | 400 | 230 | 8.4 |
| Cc1cc(Oc2c(F)cccc2F)ncc1-n1ncc(C(=O)c2cc3cc(F)c(NC4CCN(S(C)(=O)=O)CC4)cc3[nH]2)c1N [Example 5-1-113, [5-amino-1-[6-(2,6-difluorophenoxy)-4-methylpyridin-3-yl]pyrazol-4-yl]-[5-fluoro-6-[(1-methylsulfonylpiperidin-4-yl)amino]-1H-indol-2-yl]methanone] |  |  |  | 41 | 3.3 | 3.9 |
| Cc1cc2cc(C(=O)c3cnn(-c4cnc(Oc5cccc(Cl)c5)cc4C)c3N)[nH]c2cc1NS(=O)(=O)CCCF [Example 4-2-075, N-[2-[5-amino-1-[6-(3-chlorophenoxy)-4-methylpyridin-3-yl]pyrazole-4-carbonyl]-5-methyl-1H-indol-6-yl]-3-fluoropropane-1-sulfonamide] | 170 | 110 | 10 |  |  |  |
| CCc1cc2cc(C(=O)c3cnn(-c4cnc(Oc5c(F)cccc5F)cc4C)c3N)[nH]c2cc1NS(C)(=O)=O [Example 5-1-141, N-[2-[5-amino-1-[6-(2,6-difluorophenoxy)-4-methylpyridin-3-yl]pyrazole-4-carbonyl]-5-ethyl-1H-indol-6-yl]methanesulfonamide] |  |  |  | 75 | 27 | 2.4 |
| Cc1cccc(S(=O)(=O)Nc2cc3[nH]c(C(=O)c4cnn(-c5cnc(Oc6c(F)cccc6F)cc5C)c4N)cc3cc2C)n1 [Example 5-1-531, N-[2-[5-amino-1-[6-(2,6-difluorophenoxy)-4-melhylpyridin-3-yl]pyrazole-4-carbonyl]-5-methyl-1H-indol-6-yl]-6-methylpyridine-2-sulfonamide] | 480 | 110 | 4.9 |  |  |  |
| Cc1cc2cc(C(=O)c3cnn(-c4c(C)cc(Oc5c(F)cccc5F)cc4F)c3N)[nH]c2cc1NS(C)(=O)=O [Example 5-1-140, N-[2-[5-amino-1-[4-(2,6-difluorophenoxy)-2-fluoro-6-methylphenyl]pyrazole-4-carbonyl]-5-methyl-1H-indol-6-yl]methanesulfonamide] |  |  |  | 48 | 24 | 2.8 |
| COc1cc2cc(C(=O)c3cnn(-c4c(C)cc(Oc5ccccc5F)cc4F)c3N)[nH]c2cc1NS(C)(=O)=O [Example 4-1-006, N-[2-[5-amino-1-[2-fluoro-4-(2-fluorophenoxy)-6-methylphenyl]pyrazole-4-carbonyl]-5-methoxy-1H-indol-6-yl]methanesulfonamide] | 74 | 11 | 1.8 |  |  |  |
| Cc1cc(Oc2ccccc2F)cc(C)c1-n1ncc(C(=O)c2cc3cc(F)c(NS(C)(=O)=O)cc3[nH]2)c1N [Example 5-1-032, N-[2-[5-amino-1-[4-(2-fluorophenoxy)-2,6-dimethylphenyl]pyrazole-4-carbonyl]-5-fluoro-1H-indol-6-yl]methanesulfonamide] |  |  |  | 380 | 130 | 11 |
| Cc1cc2cc(C(=O)c3cnn(-c4cnc(Oc5ccccc5F)cc4C)c3N)[nH]c2cc1NS(=O)(=O)N1CCOCC1 [Example 4-2-108, N-[2-[5-amino-1-[6-(2-fluorophenoxy)-4-methylpyridin-3-yl]pyrazole-4-carbonyl]-5-methyl-1H-indol-6-yl]morpholine-4-sulfonamide] | 94 | 31 | 1 |  |  |  |

Next, values leading:

| IC50 (human Src enzyme; [1]) [nM] | IC50 (human Lck enzyme; [1]) [nM] | IC50 (human Yes1 enzyme; [1]) [nM] | IC50 (human Src enzyme) [nM] | IC50 (human Lck enzyme) [nM] | IC50 (human Yes1 enzyme) [nM] | Structure (SMILES) |
| --- | --- | --- | --- | --- | --- | --- |
| 43 | 23 | 13 |  |  |  | CC(=O)N1CCC(c2cc3[nH]c(C(=O)c4cnn(-c5cnc(Oc6c(F)cccc6F)cc5C)c4N)cc3cc2OC(F)F)CC1 [Example 4-17-011, 1-[4-[2-[5-amino-1-[6-(2,6-difluorophenoxy)-4-methylpyridin-3-yl]pyrazole-4-carbonyl]-5-(difluoromethoxy)-1H-indol-6-yl]piperidin-1-yl]ethanone] |
| 18 | 6.5 | 1.4 |  |  |  | Cc1cc(Oc2ccccc2F)ccc1-n1ncc(C(=O)c2cc3cc(OCC(F)F)c(NC4CN(S(C)(=O)=O)C4)cc3[nH]2)c1N [Example 4-23-018, [5-amino-1-[4-(2-fluorophenoxy)-2-methylphenyl]pyrazol-4-yl]-[5-(2,2-difluoroethoxy)-6-[(1-methylsulfonylazetidin-3-yl)amino]-1H-indol-2-yl]methanone] |
| 55 | 14 | 1.2 |  |  |  | CS(=O)(=O)Nc1cc2[nH]c(C(=O)c3cnn(-c4ccc(Oc5ccccn5)cc4Cl)c3N)cc2cc1F [Example 4-1-003, N-[2-[5-amino-1-(2-chloro-4-pyridin-2-yloxyphenyl)pyrazole-4-carbonyl]-5-fluoro-1H-indol-6-yl]methanesulfonamide] |
| 23 | 5.2 | 1.1 |  |  |  | Cc1cc(Oc2ccccc2F)ncc1-n1ncc(C(=O)c2cc3cc(N4CCOCC4)c(N4CCCS4(=O)=O)cc3[nH]2)c1N [Example 4-25-007, [5-amino-1-[6-(2-fluorophenoxy)-4-methylpyridin-3-yl]pyrazol-4-yl]-[6-(1,1-dioxo-1,2-thiazolidin-2-yl)-5-morpholin-4-yl-1H-indol-2-yl]methanone] |
| 37 | 4.3 | 0.69 |  |  |  | Cc1cc(Oc2c(F)cccc2F)ncc1-n1ncc(C(=O)c2cc3cc(F)c(NS(C)(=O)=O)cc3[nH]2)c1N [Example 4-2-031, N-[2-[5-amino-1-[6-(2,6-difluorophenoxy)-4-methylpyridin-3-yl]pyrazole-4-carbonyl]-5-fluoro-1H-indol-6-yl]methanesulfonamide] |
| 9.4 | 4.9 | 2.2 |  |  |  | Cc1cc(Oc2ccccc2Cl)ccc1-n1ncc(C(=O)c2cc3cc(F)c(C4CCN(C(C)C)CC4)cc3[nH]2)c1N [Example 4-2-012, [5-amino-1-[4-(2-chlorophenoxy)-2-methylphenyl]pyrazol-4-yl]-[5-fluoro-6-(1-propan-2-ylpiperidin-4-yl)-1H-indol-2-yl]methanone] |
| 19 | 11 | 2.4 |  |  |  | Cc1cc(Oc2ccccc2F)cc(F)c1-n1ncc(C(=O)c2cc3cc(OCC(F)F)c(C4CCN(S(C)(=O)=O)CC4)cc3[nH]2)c1N [Example 4-17-018, [5-amino-1-[2-fluoro-4-(2-fluorophenoxy)-6-methylphenyl]pyrazol-4-yl]-[5-(2,2-difluoroethoxy)-6-(1-methylsulfonylpiperidin-4-yl)-1H-indol-2-yl]methanone] |
| 44 | 8.2 | 4.9 |  |  |  | Cc1cc(Oc2ccccc2F)cc(F)c1-n1ncc(C(=O)c2cc3cc(OC(F)F)c(N4CCCC4=O)cc3[nH]2)c1N [Example 4-25-015, 1-[2-[5-amino-1-[2-fluoro-4-(2-fluorophenoxy)-6-methylphenyl]pyrazole-4-carbonyl]-5-(difluoromethoxy)-1H-indol-6-yl]pyrrolidin-2-one] |
| 9.2 | 3 | 1 |  |  |  | Cc1cc(Oc2ccccc2F)cc(F)c1-n1ncc(C(=O)c2cc3cc(OCC(F)F)c(N4CCCC4=O)cc3[nH]2)c1N [Example 4-21-004, 1-[2-[5-amino-1-[2-fluoro-4-(2-fluorophenoxy)-6-methylphenyl]pyrazole-4-carbonyl]-5-(2,2-difluoroethoxy)-1H-indol-6-yl]pyrrolidin-2-one] |
| 53 | 11 | 3.9 |  |  |  | Cc1cc(Oc2c(F)cccc2F)ncc1-n1ncc(C(=O)c2cc3cc(OC(F)F)c(N4CCCS4(=O)=O)cc3[nH]2)c1N [Example 4-25-005, [5-amino-1-[6-(2,6-difluorophenoxy)-4-methylpyridin-3-yl]pyrazol-4-yl]-[5-(difluoromethoxy)-6-(1,1-dioxo-1,2-thiazolidin-2-yl)-1H-indol-2-yl]methanone] |
| 43 | 9.3 | 1.5 |  |  |  | Cc1cc2cc(C(=O)c3cnn(-c4cnc(Oc5c(F)cccc5F)cc4C)c3N)[nH]c2cc1N1CCCS1(=O)=O [Example 4-2-116, [5-amino-1-[6-(2,6-difluorophenoxy)-4-methylpyridin-3-yl]pyrazol-4-yl]-[6-(1,1-dioxo-1,2-thiazolidin-2-yl)-5-methyl-1H-indol-2-yl]methanone] |
| 13 | 1.5 | 0.48 |  |  |  | Cc1cc(Oc2ccccc2F)ncc1-n1ncc(C(=O)c2cc3cc(OCC(F)F)c(N4CCOC4=O)cc3[nH]2)c1N [Example 4-25-016, 3-{2-{5-amino-1-[6-(2-fluorophenoxy)-4-methylpyridin-3-yl]pyrazole-4-carbonyl}-5-(2,2-difluoroethoxy)-1H-indol-6-yl}-1,3-oxazolidin-2-one] |
